Columns and labels:
Type in all cases: cell-based
[1] = target: T1, ATP-dependent translocase ABCB1 (Homo sapiens, UniProt P08183); test: Inhibition of human ABCB1 expressed in mouse L5178 cells assessed as 95% inhibition of cell proliferation at compound-doxorubicin ratio of 20.4:1 after 48 hrs by MTT assay; details: l5178, 48 h
[2] = target: T1, ATP-dependent translocase ABCB1; test: Inhibition of human ABCB1 pump expressed in mouse L5178 cells assessed as fluorescence activity ratio at 20 uM for 10 mins by flow cytometry relative to control; details: l5178, 10 min
[3] = target: T1, ATP-dependent translocase ABCB1; test: Inhibition of human ABCB1 expressed in mouse L5178 cells assessed as 75% inhibition of cell proliferation at compound-doxorubicin ratio of 20.4:1 after 48 hrs by MTT assay; details: l5178, 48 h
[4] = target: T1, ATP-dependent translocase ABCB1; test: Inhibition of human ABCB1 expressed in mouse L5178 cells assessed as 50% inhibition of cell proliferation at compound-doxorubicin ratio of 20.4:1 after 48 hrs by MTT assay; details: l5178, 48 h
[5] = target: T1, ATP-dependent translocase ABCB1; test: Inhibition of human ABCB1 expressed in mouse L5178 cells assessed as 95% inhibition of cell proliferation at compound-doxorubicin ratio of 81.5:1 after 48 hrs by MTT assay; details: l5178, 48 h
[6] = target: T1, ATP-dependent translocase ABCB1; test: Inhibition of human ABCB1 expressed in mouse L5178 cells assessed as 50% inhibition of cell proliferation at compound-doxorubicin ratio of 81.5:1 after 48 hrs by MTT assay; details: l5178, 48 h
[7] = target: T1, ATP-dependent translocase ABCB1; test: Inhibition of human ABCB1 expressed in mouse L5178 cells assessed as 75% inhibition of cell proliferation at compound-doxorubicin ratio of 81.5:1 after 48 hrs by MTT assay; details: l5178, 48 h

T1 sequence (P08183 whole entry): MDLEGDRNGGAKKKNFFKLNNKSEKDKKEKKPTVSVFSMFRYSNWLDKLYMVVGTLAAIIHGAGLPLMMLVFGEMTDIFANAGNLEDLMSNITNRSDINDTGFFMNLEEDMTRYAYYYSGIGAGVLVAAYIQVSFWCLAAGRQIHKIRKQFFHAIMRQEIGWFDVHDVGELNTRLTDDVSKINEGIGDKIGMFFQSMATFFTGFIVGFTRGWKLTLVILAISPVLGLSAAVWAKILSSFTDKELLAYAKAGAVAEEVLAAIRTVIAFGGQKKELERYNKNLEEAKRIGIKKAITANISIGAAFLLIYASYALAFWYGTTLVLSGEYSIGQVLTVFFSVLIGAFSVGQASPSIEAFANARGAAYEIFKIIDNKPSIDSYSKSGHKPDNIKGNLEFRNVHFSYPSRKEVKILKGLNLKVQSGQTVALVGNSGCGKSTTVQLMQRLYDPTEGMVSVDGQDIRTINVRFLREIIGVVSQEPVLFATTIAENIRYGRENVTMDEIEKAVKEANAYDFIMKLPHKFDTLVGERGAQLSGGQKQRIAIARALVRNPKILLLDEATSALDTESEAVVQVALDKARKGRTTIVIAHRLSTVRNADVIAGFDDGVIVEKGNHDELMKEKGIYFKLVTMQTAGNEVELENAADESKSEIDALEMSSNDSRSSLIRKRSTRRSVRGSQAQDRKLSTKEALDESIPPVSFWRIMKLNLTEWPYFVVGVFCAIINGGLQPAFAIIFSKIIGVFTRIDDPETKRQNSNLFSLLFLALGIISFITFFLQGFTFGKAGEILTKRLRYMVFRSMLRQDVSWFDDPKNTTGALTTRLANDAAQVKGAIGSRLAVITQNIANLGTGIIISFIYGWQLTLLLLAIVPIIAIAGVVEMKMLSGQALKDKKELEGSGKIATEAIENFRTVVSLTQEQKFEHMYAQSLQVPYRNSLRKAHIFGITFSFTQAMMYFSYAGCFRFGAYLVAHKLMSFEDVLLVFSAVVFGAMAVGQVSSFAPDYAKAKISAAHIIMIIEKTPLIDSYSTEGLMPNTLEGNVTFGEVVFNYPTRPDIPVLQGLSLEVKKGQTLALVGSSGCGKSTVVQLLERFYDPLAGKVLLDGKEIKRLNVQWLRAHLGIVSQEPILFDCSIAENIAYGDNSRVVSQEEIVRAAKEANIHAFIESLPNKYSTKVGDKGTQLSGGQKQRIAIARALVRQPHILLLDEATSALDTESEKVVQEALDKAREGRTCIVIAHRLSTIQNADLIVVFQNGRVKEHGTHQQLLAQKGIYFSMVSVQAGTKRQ

Ratio [2] | SMILES | fractional inhibitory concentration index (FICI) [1] | fractional inhibitory concentration index (FICI) [3] | fractional inhibitory concentration index (FICI) [4] | fractional inhibitory concentration index (FICI) [5] | fractional inhibitory concentration index (FICI) [6] | fractional inhibitory concentration index (FICI) [7]
1.76 | CC(C)(O)CC[C@@H](O)[C@](C)(O)[C@H]1CC[C@@]2(O)C3=CC(=O)[C@@H]4C[C@@H](O)[C@@H](O)C[C@]4(C)[C@H]3CC[C@]12C [20-HYDROXYECDYSONE] | 2.04 | 2.02 | 2 |  |  | 
26.53 | CC[C@H](C[C@H]1OC(C)(C)O[C@]1(C)[C@H]1CC[C@@]2(O)C3=CC(=O)[C@@H]4C[C@H]5OC(C)(C)O[C@H]5C[C@]4(C)[C@H]3CC[C@]12C)C(C)(C)O | 0.068 | 0.11 | 0.19 |  |  | 
2.53 | CC(C)(O)CC[C@H]1OC(C)(C)O[C@]1(C)[C@H]1CC[C@@]2(O)C3=CC(=O)[C@@H]4C[C@H]5OC(C)(C)O[C@H]5[C@@H](O)[C@]4(C)[C@H]3CC[C@]12C | 0.24 | 0.49 | 1.23 |  |  | 
2.43 | CC(C)(O)CC[C@H]1OC(C)(C)O[C@]1(C)[C@H]1CC[C@@]2(O)C3=CC(=O)[C@@H]4C[C@@H](O)[C@H]5OC(C)(C)O[C@H]5[C@]4(C)[C@H]3CC[C@]12C | 0.28 | 0.42 | 0.66 |  |  | 
8.19 | CC(C)(O)CC[C@H]1OC(C)(C)O[C@]1(C)[C@H]1CC[C@@]2(O)C3=CC(=O)[C@H]4C[C@@H](O)CC[C@]4(C)[C@H]3CC[C@]12C |  |  |  | 0.37 | 1.28 | 0.69
1.8 | CC(C)(O)CC[C@H]1OC(C)(C)O[C@]1(C)[C@H]1CC[C@@]2(O)C3=CC(=O)[C@]4(O)C[C@@H](O)[C@@H](O)C[C@]4(C)[C@H]3CC[C@]12C |  |  |  | 0.11 | 0.63 | 0.21
25.07 | CC(=O)O[C@H]1CC[C@@]2(C)[C@@H](C1)C(=O)C=C1[C@@H]2CC[C@]2(C)[C@@H]([C@H](C)[C@@H](CCC(C)(C)OC(C)=O)OC(C)=O)CC[C@@]12O | 0.14 | 0.23 | 0.41 |  |  | 
8.55 | CC(=O)O[C@H]1C[C@@]2(C)[C@@H](C[C@H]1OC(C)=O)C(=O)C=C1[C@@H]2CC[C@]2(C)[C@@H]([C@@](C)(O)[C@@H](CCC(C)(C)OC(C)=O)OC(C)=O)CC[C@@]12O | 0.13 | 0.29 | 0.73 |  |  | 
1.48 | CC(=O)O[C@H]1C[C@]2(C)[C@H]3CC[C@]4(C)[C@@H]([C@@](C)(O)[C@@H](CCC(C)(C)OC(C)=O)OC(C)=O)CC[C@@]4(O)C3=CC(=O)[C@]2(O)C[C@H]1OC(C)=O |  |  |  | 0.38 | 0.65 | 0.46
0.81 | CC(C)(O)CC[C@@H](O)[C@](C)(O)[C@H]1CC[C@@]2(O)C3=CC(=O)[C@H]4C[C@@H](O)[C@@H](O)C[C@]4(C)[C@H]3CC[C@]12C |  |  |  | 0.37 | 0.99 | 0.57
1.21 | CC[C@H](C[C@H]1OC(C)(C)O[C@]1(C)[C@H]1CC[C@@]2(O)C3=CC(=O)[C@@H]4C[C@@H](O)[C@@H](O)C[C@]4(C)[C@H]3CC[C@]12C)C(C)(C)O |  |  |  | 0.091 | 0.81 | 0.26
1.21 | CC(C)(O)CC[C@@H](O)[C@](C)(O)[C@H]1CC[C@@]2(O)C3=CC(=O)[C@@]4(O)C[C@@H](O)CC[C@]4(C)[C@H]3CC[C@]12C |  |  |  | 0.27 | 0.78 | 0.45
5.4 | CC(=O)[C@H]1CC[C@@]2(O)C3=CC(=O)[C@@H]4C[C@@H](O)[C@@H](O)C[C@]4(C)C3=CC[C@]12C |  |  |  | 0.37 | 1.21 | 0.67
0.68 | CC(C)(CC[C@@H](O)[C@](C)(O)[C@H]1CC[C@@]2(O)C3=CC(=O)[C@@H]4C[C@@H](O)CC[C@]4(C)[C@H]3CC[C@]12C)O[C@@H]1O[C@H](CO)[C@@H](O)[C@H](O)[C@H]1O |  |  |  | 0.51 | 1.05 | 0.72
1.21 | CC(=O)O[C@H](CCC(C)(C)O)[C@](C)(O)[C@H]1CC[C@@]2(O)C3=CC(=O)[C@@H]4C[C@@H](O)CC[C@]4(C)[C@H]3CC[C@]12C |  |  |  | 0.44 | 1.03 | 0.66

SMILES | Ratio [2] | fractional inhibitory concentration index (FICI) [1] | fractional inhibitory concentration index (FICI) [3] | fractional inhibitory concentration index (FICI) [4] | fractional inhibitory concentration index (FICI) [5] | fractional inhibitory concentration index (FICI) [6] | fractional inhibitory concentration index (FICI) [7]
CC(C)(O)CC[C@@H](O)[C@](C)(O)[C@H]1CC[C@@]2(O)C3=CC(=O)[C@@H]4C[C@@H](O)[C@@H](O)C[C@]4(C)[C@H]3[C@H](O)C[C@]12C [TURKESTERONE] | 0.93 |  |  |  | 4.2 | 5.19 | 4.53
CC(=O)O[C@H](CCC(C)(C)O)[C@](C)(O)[C@H]1CC[C@@]2(O)C3=CC(=O)[C@@H]4C[C@@H](O)[C@@H](O)C[C@]4(C)[C@H]3CC[C@]12C | 1.54 |  |  |  | 0.64 | 1.6 | 0.97
CC(C)(O)CC[C@H]1OC(C)(C)O[C@]1(C)[C@H]1CC[C@@]2(O)C3=CC(=O)[C@@H]4C[C@@H](O)[C@@H](O)C[C@]4(C)[C@H]3CC[C@]12C | 1.53 | 0.35 | 0.54 | 0.84 |  |  | 
CC(C)CC[C@@H](O)[C@](C)(O)[C@H]1CC[C@@]2(O)C3=CC(=O)[C@]4(O)C[C@@H](O)[C@@H](O)C[C@]4(C)[C@H]3[C@H](O)C[C@]12C [MURISTERONE A] | 0.74 |  |  |  |  |  | 
CC(C)CC[C@@H](O)[C@](C)(O)[C@H]1CC[C@@]2(O)C3=CC(=O)[C@@H]4C[C@@H](O)[C@@H](O)C[C@]4(C)[C@H]3CC[C@]12C [PONASTERONE A] | 1.26 |  |  |  | 0.44 | 1.41 | 0.78
C[C@H]([C@H](O)CCC(C)(C)O)[C@H]1CC[C@@]2(O)C3=CC(=O)[C@@H]4C[C@@H](O)CC[C@]4(C)[C@H]3CC[C@]12C | 0.94 |  |  |  | 0.81 | 2.05 | 1.27
CC1(C)CC[C@H]([C@](C)(O)[C@H]2CC[C@@]3(O)C4=CC(=O)[C@@H]5C[C@@H](O)[C@@H](O)C[C@]5(C)[C@H]4CC[C@]23C)O1 [SHIDASTERONE] | 0.88 |  |  |  | 0.096 | 1.44 | 0.32
CC(C)(O)CCC[C@](C)(O)[C@H]1CC[C@@]2(O)C3=CC(=O)[C@@H]4C[C@@H](O)[C@@H](O)C[C@]4(C)[C@H]3CC[C@]12C | 0.67 |  |  |  | 1.59 | 2.04 | 1.75
CCC1=C(C)C(=O)O[C@@H]([C@](C)(O)[C@H]2CC[C@@]3(O)C4=CC(=O)[C@@H]5C[C@@H](O)[C@@H](O)C[C@]5(C)[C@H]4CC(=O)[C@]23C)C1 [AJUGALACTONE] | 0.87 |  |  |  | 2.89 | 1.43 | 1.96
C[C@H]([C@H](O)CCC(C)(C)O)[C@H]1CC[C@@]2(O)C3=CC(=O)[C@@H]4C[C@@H](O)[C@@H](O)C[C@]4(C)[C@H]3CC[C@]12C [ECDYSONE] | 1.38 |  |  |  | 12.16 | 2.31 | 4.89
CC(C)(O)CC[C@@H](O)[C@](C)(O)[C@H]1CC[C@@]2(O)C3=CC(=O)[C@@H]4C[C@@H](O)[C@@H](O)C[C@]4(C)C3=CC[C@]12C | 1.24 |  |  |  | 4.61 | 2.66 | 3.35
CC(C)(O)CC[C@@H](O)[C@](C)(O)[C@H]1CC[C@@]2(O)C3=CC(=O)[C@@H]4C[C@@H](O)[C@@H](O)[C@@H](O)[C@]4(C)[C@H]3CC[C@]12C [INTEGRISTERONE A] | 0.94 |  |  |  | 2.42 | 0.8 | 1.31
